Measurements: PubChem BioAssay AID328 (DTP/NCI, 2004)
Values joined by “and” are separate entries in the source; they are usually repeats but may differ in a detail not shown here. Equal entries are not always repeated. Inconclusive results and toxic doses are left out.

System: BDF1 mice, P388 leukemia ip, median survival T/C
Test: NCI In Vivo Anticancer Drug Screen. Data for tumor model P388 Leukemia (intraperitoneal) in B6D2F1 (BDF1) mice
Conditions: endpoint: median survival time, higher = longer survival
Procedure, shortened: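 In tumour-bearing mice, survival after compound treatment is set against the vehicle group and given as a quotient.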

[1] = dose: 25.0 mg/kg/injection, schedule: Q04DX003 (ip), vehicle: saline with Tween-80
[2] = dose: 50.0 mg/kg/injection, schedule: Q01DX009 (ip), vehicle: saline with Tween-80
[3] = dose: 100.0 mg/kg/injection, schedule: Q01DX009 (ip), vehicle: saline with Tween-80
[4] = dose: 200.0 mg/kg/injection, schedule: Q01DX009 (ip), vehicle: saline with Tween-80
[5] = dose: 12.5 mg/kg/injection, schedule: Q01DX009 (ip), vehicle: saline with Tween-80
[6] = dose: 25.0 mg/kg/injection, schedule: Q01DX009 (ip), vehicle: saline with Tween-80
[7] = dose: 100.0 mg/kg/injection, schedule: Q04DX003 (ip), vehicle: saline with Tween-80
[8] = dose: 200.0 mg/kg/injection, schedule: Q04DX003 (ip), vehicle: saline with Tween-80
[9] = dose: 400.0 mg/kg/injection, schedule: Q04DX003 (ip), vehicle: saline with Tween-80
[10] = dose: 50.0 mg/kg/injection, schedule: Q04DX003 (ip), vehicle: saline with Tween-80
[11] = dose: 100.0 mg/kg/injection, schedule: Q01DX009 (ip), vehicle: saline

C1CCCC(NC2=NCCO2)CC1
T/C (dose: 6.25 mg/kg/injection, schedule: Q04DX003 (ip), vehicle: saline with Tween-80): 100 % of control
T/C (dose: 12.5 mg/kg/injection, schedule: Q04DX003 (ip), vehicle: saline with Tween-80): 100 % of control
T/C [1]: 104 % of control

COc1ccc(CC2c3cc(OC)c(OC)cc3CCN2C(=O)OCc2ccccc2)cc1OC (stereo not drawn)
T/C (dose: 50.0 mg/kg/injection, schedule: Q01DX005 (ip), vehicle: saline with Tween-80): 91 % of control
T/C (dose: 100.0 mg/kg/injection, schedule: Q01DX005 (ip), vehicle: saline with Tween-80): 93 % of control
T/C (dose: 200.0 mg/kg/injection, schedule: Q01DX005 (ip), vehicle: saline with Tween-80): 92 % of control

CC(C)(C)C(=O)/C=C/c1ccccc1
T/C [2]: 94 % of control
T/C [3]: 90 % of control
T/C [4]: 105 % of control

[NH-]CC[S-].[NH-]CC[S-].[NH-]CC[S-].[NH-]CC[S-].[Ni+2].[Ni+2].[Ni]
T/C (dose: 2.0 mg/kg/injection, schedule: Q01DX009 (ip), vehicle: saline): 105 % of control
T/C (dose: 3.12 mg/kg/injection, schedule: Q04DX003 (ip), vehicle: saline): 100 % of control
T/C (dose: 4.0 mg/kg/injection, schedule: Q01DX009 (ip), vehicle: saline): 100 % of control
T/C (dose: 8.0 mg/kg/injection, schedule: Q01DX009 (ip), vehicle: saline): 98 % of control
T/C (dose: 16.0 mg/kg/injection, schedule: Q01DX009 (ip), vehicle: saline): 87 % of control and 117 % of control

Cc1ccc(NC(=O)Oc2ccc(Cl)c(C)c2)c([N+](=O)[O-])c1
T/C [5]: 108 % of control
T/C [6]: 102 % of control
T/C [2]: 117 % of control

COc1c2c(c(OC(C)=O)c3c1C(=O)c1ccccc1C3=O)CCCC2
T/C (dose: 6.25 mg/kg/injection, schedule: Q01DX001 (ip), vehicle: saline): 115 % of control
T/C (dose: 12.5 mg/kg/injection, schedule: Q01DX001 (ip), vehicle: saline): 115 % of control
T/C (dose: 25.0 mg/kg/injection, schedule: Q01DX001 (ip), vehicle: saline): 115 % of control
T/C (dose: 50.0 mg/kg/injection, schedule: Q01DX001 (ip), vehicle: saline): 115 % of control
T/C (dose: 100.0 mg/kg/injection, schedule: Q01DX001 (ip), vehicle: saline): 115 % of control

O=C(NC(=O)c1c(F)cccc1F)Nc1nc2c(Cl)cccc2s1
T/C [2]: 93 % of control
T/C [3]: 93 % of control
T/C [4]: 94 % of control

COc1ccccc1NC(=O)Nc1cccc(Cl)c1
T/C [7]: 95 % of control
T/C [8]: 104 % of control
T/C [9]: 95 % of control

CCC(C)C(NC(=O)OCc1ccccc1)C(=O)ON1C(=O)CCC1=O (stereo not drawn)
T/C [7]: 118 % of control
T/C [9]: 109 % of control

CCCCOc1ccc(NC(N)=Nc2ccc(Cl)cc2)cc1
T/C (dose: 3.12 mg/kg/injection, schedule: Q01DX010 (ip), vehicle: carboxymethylcellulose (CMC)): 95 % of control
T/C (dose: 12.5 mg/kg/injection, schedule: Q01DX010 (ip), vehicle: carboxymethylcellulose (CMC)): 90 % of control
T/C (dose: 25.0 mg/kg/injection, schedule: Q01DX010 (ip), vehicle: carboxymethylcellulose (CMC)): 95 % of control
T/C [1]: 109 % of control
T/C (dose: 50.0 mg/kg/injection, schedule: Q01DX010 (ip), vehicle: carboxymethylcellulose (CMC)): 95 % of control
T/C [10]: 90 % of control

Nc1nc(N)c2cc(S(=O)(=O)c3cccc(C(F)(F)F)c3)ccc2n1
T/C [2]: 95 % of control
T/C [3]: 111 % of control
T/C [4]: 120 % of control

NC1(CO)COC(c2ccccc2)OC1 (stereo not drawn)
T/C (dose: 25.0 mg/kg/injection, schedule: Q01DX009 (ip), vehicle: saline): 100 % of control and 105 % of control
T/C (dose: 50.0 mg/kg/injection, schedule: Q01DX009 (ip), vehicle: saline): 105 % of control and 118 % of control
T/C (dose: 50.0 mg/kg/injection, schedule: Q04DX003 (ip), vehicle: saline): 97 % of control and 98 % of control and 109 % of control
T/C [11]: 100 % of control and 107 % of control
T/C (dose: 100.0 mg/kg/injection, schedule: Q04DX003 (ip), vehicle: saline): 100 % of control and 102 % of control

CCCCCCCCCC(O)CCCCC (stereo not drawn)
T/C (dose: 20.0 mg/kg/injection, schedule: Q01DX009 (ip), vehicle: saline with Tween-80): 100 % of control
T/C [1]: 95 % of control
T/C (dose: 45.0 mg/kg/injection, schedule: Q01DX009 (ip), vehicle: saline with Tween-80): 100 % of control
T/C [10]: 108 % of control
T/C (dose: 90.0 mg/kg/injection, schedule: Q01DX009 (ip), vehicle: saline with Tween-80): 104 % of control
T/C [3]: 113 % of control
T/C [11]: 170 % of control
T/C [7]: 100 % of control
T/C (dose: 135.0 mg/kg/injection, schedule: Q01DX009 (ip), vehicle: saline with Tween-80): 95 % of control
T/C [4]: 108 % of control
T/C [8]: 95 % of control
T/C (dose: 400.0 mg/kg/injection, schedule: Q01DX009 (ip), vehicle: saline with Tween-80): 113 % of control
T/C [9]: 100 % of control

CC[C@H]1CN(C)[C@H]2Cc3c([nH]c4ccccc34)C(=O)C[C@H]1C2C(=O)OC (stereo partly drawn)
T/C (dose: 0.25 mg/kg/injection, schedule: Q01DX009 (ip), vehicle: other): 86 % of control
T/C (dose: 0.5 mg/kg/injection, schedule: Q01DX009 (ip), vehicle: other): 86 % of control
T/C (dose: 1.0 mg/kg/injection, schedule: Q01DX009 (ip), vehicle: other): 86 % of control
T/C (dose: 2.0 mg/kg/injection, schedule: Q01DX009 (ip), vehicle: other): 95 % of control

CN1CCc2cc3c4cc2C1Cc1ccc(O)c(c1)Oc1ccc(cc1)CC1c2c(cc(O)c(c2O4)O3)CCN1C (stereo not drawn)
T/C (dose: 7.5 mg/kg/injection, schedule: Q01DX009 (ip), vehicle: saline with Tween-80): 90 % of control

C[As](C)(=S)[As](C)(C)=S
T/C (dose: 6.25 mg/kg/injection, schedule: Q01DX009 (ip), vehicle: saline with Tween-80): 116 % of control
T/C [5]: 114 % of control
T/C [6]: 119 % of control

CNC1=CC(=O)C1(F)F
T/C (dose: 25.0 mg/kg/injection, schedule: Q01DX001 (ip), vehicle: saline sonified): 100 % of control
T/C (dose: 50.0 mg/kg/injection, schedule: Q01DX001 (ip), vehicle: saline sonified): 109 % of control
T/C (dose: 100.0 mg/kg/injection, schedule: Q01DX001 (ip), vehicle: saline sonified): 100 % of control

COc1ccc(C)cc1CN1NC(=O)CC1=N
T/C (dose: 100.0 mg/kg/injection, schedule: Q01DX009 (ip), vehicle: Klucel (hydroxypropylcellulose) (HPC)): 100 % of control
T/C (dose: 100.0 mg/kg/injection, schedule: Q04DX003 (ip), vehicle: Klucel (hydroxypropylcellulose) (HPC)): 100 % of control
T/C (dose: 200.0 mg/kg/injection, schedule: Q01DX009 (ip), vehicle: Klucel (hydroxypropylcellulose) (HPC)): 109 % of control
T/C (dose: 200.0 mg/kg/injection, schedule: Q04DX003 (ip), vehicle: Klucel (hydroxypropylcellulose) (HPC)): 122 % of control
T/C (dose: 400.0 mg/kg/injection, schedule: Q01DX009 (ip), vehicle: Klucel (hydroxypropylcellulose) (HPC)): 100 % of control
T/C (dose: 400.0 mg/kg/injection, schedule: Q04DX003 (ip), vehicle: Klucel (hydroxypropylcellulose) (HPC)): 94 % of control

Oc1cccc(O)c1
T/C (dose: 50.0 mg/kg/injection, schedule: Q01DX010 (ip), vehicle: saline): 95 % of control
T/C (dose: 100.0 mg/kg/injection, schedule: Q01DX010 (ip), vehicle: saline): 91 % of control

O=C1CSc2ccccc2N1
T/C (dose: 50.0 mg/kg/injection, schedule: Q01DX001 (ip), vehicle: Klucel (hydroxypropylcellulose) (HPC)): 109 % of control
T/C (dose: 100.0 mg/kg/injection, schedule: Q01DX001 (ip), vehicle: Klucel (hydroxypropylcellulose) (HPC)): 100 % of control
T/C (dose: 200.0 mg/kg/injection, schedule: Q01DX001 (ip), vehicle: Klucel (hydroxypropylcellulose) (HPC)): 116 % of control

Cn1c(N)nc2nc[nH]c2c1=S
T/C (dose: 10.0 mg/kg/injection, schedule: Q01DX010 (ip), vehicle: saline): 91 % of control
T/C (dose: 20.0 mg/kg/injection, schedule: Q01DX010 (ip), vehicle: saline): 91 % of control and 95 % of control
T/C (dose: 40.0 mg/kg/injection, schedule: Q01DX010 (ip), vehicle: saline): 91 % of control and 100 % of control
T/C (dose: 80.0 mg/kg/injection, schedule: Q01DX010 (ip), vehicle: saline): 91 % of control and 95 % of control
